Results taken from ChEMBL document CHEMBL1142108, “Carbamidocyclophanes A-E, chlorinated paracyclophanes with cytotoxic and antibiotic activity from the Vietnamese cyanobacterium Nostoc sp” (J Nat Prod, 2007).
Values after ≈ are worked out from the molar mass of the structure shown.

What was measured:
Staphylococcus aureus = experiment: Antibacterial activity against Staphylococcus aureus ATCC 6538; format: functional
MCF7 = experiment: Cytotoxicity against MCF7 cells after 48 hrs; format: cell-based; settings: Homo sapiens, MCF7, 48 h
[1] = Cytotoxicity against human F1 cells after 48 hrs; format: cell-based; settings: F1, 48 h

| MIC (Staphylococcus aureus) | SMILES | IC50 (MCF7) | IC50 [1] |
| --- | --- | --- | --- |
| 100 µM (≈ 80.9 µg/mL) | C[C@H]1CCCCC(CCCC(Cl)Cl)c2c(O)cc(cc2O)[C@H](OC(N)=O)[C@@H](C)CCCCC(CCCC(Cl)Cl)c2c(O)cc(cc2O)[C@@H]1OC(N)=O (some centres undefined) [CARBAMIDOCYCLOPHANE A] | 860 nM | 3.3 µM |
| 40 µM (≈ 31 µg/mL) | C[C@H]1CCCCC(CCCCCl)c2c(O)cc(cc2O)[C@H](OC(N)=O)[C@@H](C)CCCCC(CCCC(Cl)Cl)c2c(O)cc(cc2O)[C@@H]1OC(N)=O (some centres undefined) [CARBAMIDOCYCLOPHANE B] | 1800 nM | 4.2 µM |
| 60 µM (≈ 44.4 µg/mL) | CCCCC1CCCC[C@H](C)[C@@H](OC(N)=O)c2cc(O)c(c(O)c2)C(CCCC(Cl)Cl)CCCC[C@H](C)[C@@H](OC(N)=O)c2cc(O)c1c(O)c2 (some centres undefined) [CARBAMIDOCYCLOPHANE C] | 2200 nM | 5.1 µM |
